Laboratory results: US20220340976A1, “RAPID PREDICTION OF DRUG RESPONSIVENESS” (THE BROAD INSTITUTE, INC., priority 2019, published 2022)
Where “and” joins values, the source holds several entries; their conditions need not be identical. Equal values may be shown once. Entries after “also recorded” stand apart in the source; their conditions may differ.

How the values were obtained:
[1] = test system: pools of well-characterized cancer cell lines; assay: MIX-Seq: scRNA-seq transcriptional response profiling of drug-treated cell line pools; assay type: cell-based, human; settings: for shared viability-related signature (cell-cycle genes): across compounds, 24 hours post-treatment
Method: Cell line pools were made in sets of 25 cell lines. These 25 cell line pools were chosen based on doubling time and were grown in RPMI in the absence of phenol red and with 10% FBS. Cell lines were then washed with 10 mLs of PBS, and trypsinized with 1 mL trypsin which was then removed. Ten mLs of RPMI media were added to the cells post trypsinization and resuspended. Cells were then counted by a Nexcelom cellometer using 10 uL of cell suspension and 10 ul of Trypan blue. Equal numbers of cells per cell line were mixed together and spun down at 1,250 RPM for 5 minutes. Media was aspirated and the cells were resuspended in Sigma Cell Freezing media and frozen in 1 mL aliquots. This process was repeated for all of the 25 cell line pools. For MIX-Seq experiments involving larger pools, multiple 25 cell line pools were thawed in RPMI with 10% FBS, spun down and resuspended in 5 mLs of RPMI media. Cells were then counted and equal numbers were combined together on the day of plating to form larger pools of up to ˜100 cell lines.
For drug treatment experiments, cell line pools were cultured in RPMI containing 10% fetal bovine serum, in the absence of phenol red and penicillin/streptomycin. Cell line pools were validated as Mycoplasma free prior to initiating the experiment. Cell line pools were plated at 200,000 cells per well in 6 well plates containing 2 mL of RPMI culture media described above. […] Cell pools were plated ˜16-20 hours prior to drug treatment. Cells were treated with the described drugs or vehicle (DMSO) with a 0.2% final media DMSO concentration.
Generally cells were harvested after drug treatment using standard cell culture methods. Briefly, after drug treatment cells that were in suspension (presumably containing dead cells from drug treatment) were collected and reserved for addition to the adherent cell fraction. Adherent cells were washed once with 1×PBS, trypsinized in 1 mL trypsin, incubated for 3-7 minutes at 37 C, and then trypsin inactivated with 1 mL growth media. For Cell Hashing, cells were treated with TrypLE Express (ThermoFisher) instead of trypsin to reduce the amount of cell surface proteins digested that may affect the binding of Cell Hashing antibodies.
After trypsinization, adherent and suspension cells were combined for each treatment, pelleted, and resuspended in Cell Capture Buffer (lx PBS with 0.04% BSA). Cells were counted (including trypan blue non-viable cells) and resuspended at a concentration of 1,000 cells per microliter for standard loading on the Chromium Controller (10× Genomics), or at 1,500 cells per microliter for “super loaded” samples. Up to 40,000 cells were loaded per 10× channel for “super loaded” samples, with expected recovery of up to 20,000 cells per channel. Cell suspensions were captured on a 10× Chromium controller using Single Cell 3′ reagent chemistries (either version 2 or and version 3 reagents) FIG. 26.
Sequencing data were processed using 10× Cell Ranger software, run using the Cumulus cloud-based analysis framework (Li et al. 2019). Initial experiments were done with 10× Single Cell 3′ v2 chemistry, and were processed using version 2 of the Cell Ranger software. In later experiments v3 chemistry and the corresponding version 3 of Cell Ranger were used. Reads were aligned to the hg19 reference genome.
To estimate the average transcriptional response of each cell line to a perturbation, the data were first ‘sum-collapsed’—summing read counts across cells for each cell line and treatment condition—to produce a bulk RNA-seq style read counts profile for each sample (Crowell et al. 2019; Lun & Marioni 2017). […]

[2] = test system: pools of cancer cell lines; assay: Cell cycle phase analysis inferred from single-cell transcriptional profiles (MIX-Seq); assay type: cell-based, human; settings: for change in proportion of cells in G2/M phase / change in proportion of cells in S phase: 24 hours post-treatment, average weighted by drug sensitivity
Method: Cell cycle phase classification was performed using the Seurat function CellCycleScoring, using the S- and G2M-phase gene lists reported in Tirosh et al. 2016. The change in proportion of cells in each phase between treatment and control conditions for each cell line, along with associated confidence intervals, were estimated using the prop.test R function. For FIG. 4C, aggregate scores were computed representing how each compound altered the cell cycle composition by computing weighted averages across cell lines of the change in proportion of cells in each phase, where the weights were determined by the cell lines' measured drug sensitivity (1 minus AUC, bounded between 0 and 1).
For example, characterizing the cell cycle effects of a perturbation yields important information about its MoA. Such measurements have heretofore typically been made using a FACS-based assay, which must be performed on each sample independently and cannot be used to relate cell cycle effects post hoc to other phenotypes without advanced planning. Using MIX-Seq, such measurements can be made in parallel across a pool of cell lines, inferring the cell cycle phase of each cell from its transcriptional profile (Tirosh et al. 2016).
Next, the effects of each compound on the cell cycle were systematically assessed (see Example 1 above). […] Two notable exceptions were the DNA-damaging agent gemcitabine and the CHEK1/2 inhibitor prexasertib.

[3] = test system: pools of cancer cell lines; assay: Single-cell heterogeneity analysis of drug responses (clustering of scRNA-seq profiles); assay type: cell-based, human; settings: of the 24 cell lines in the pool, 24 hours after treatment
Excerpt: Specifically, the edgeR quasi-likelihood approach was used (Lun et al. 2016), following the pipeline in Soneson et al. 2018, with the cell detection rate (the fraction of genes with non-zero reads detected) included as a covariate.
To identify subpopulations of bortezomib treated cells (FIGS. 4D-4F), Seurat's default methods were used to normalize the data, detect variable genes, and compute PCs (using 5000 most variable genes, and 50 PCs). Seurat's default clustering methods were then used to cluster cells for each cell line (using the 20 nearest neighbors, and a clustering resolution parameter of 0.25).
To identify sub-populations of cells from a given cell line in a consistent fashion across baseline and treatment conditions (for analysis and presentation in FIG. 19), the following procedure was employed. After restricting to cells from the target cell line, the scTransform method (Hafemeiester et al. 2019) was used to normalize the data, identify 5,000 variable genes, and regress out experimental condition as a covariate to align clusters across conditions. Seurat's default clustering methods (using the top 10 PCs, 20 nearest neighbors, and a clustering resolution parameter of 0.25) were then used to identify clusters jointly across treated and control cells.

[4] = test system: cancer cell lines; settings: GDSC and PRISM drug sensitivity data; cited from earlier work
[5] = 24 hours post-treatment (FIGS. 9B, 9C)

For `CC(C)(C)c1nc(-c2cccc(NS(=O)(=O)c3c(F)cccc3F)c2F)c(-c2ccnc(N)n2)s1` [dabrafenib], the “variability of transcriptional responses among sensitive cell lines” value ([1]; BRAF-mutant melanoma cell lines, 24 hour post-treatment) was “substantial variation”.

For `COc1cccc(OCCCN)c1-c1cc(Nc2cnc(C#N)cn2)n[nH]1` [prexasertib], the “shared viability-related signature (cell-cycle genes)” value (“shared viability-related signature” for short) [1] was “shared signature was also apparent”, the “change in proportion of cells in G2/M phase” value [2] was “slightly increased the fraction of G2/M cells” and the “change in proportion of cells in S phase” value [2] was “decreased the proportion of S-phase cells”.

For `CC(C)C[C@H](NC(=O)[C@H](Cc1ccccc1)NC(=O)c1cnccn1)B(O)O` [bortezomib], the “gene sets enriched in across-cell-line average transcriptional response” value (“gene sets enriched” for short) ([1]; 6 hours post-treatment (FIG. 9A)) was “strong up-regulation of protein folding and heat-shock response pathways”, the “shared viability-related signature” value [1] was “shared signature was also apparent” and the “number of cell lines showing a bimodal response” value [3] was 10 and 9.

In the case of `COc1ccc(C2=NC(c3ccc(Cl)cc3)C(c3ccc(Cl)cc3)N2C(=O)N2CCNC(=O)C2)c(OC(C)C)c1` (centres unmarked) [nutlin], the “average drug-induced changes in gene expression for each cell line” value ([1]; TP53 WT cell lines (7) in a pool of 24 cell lines) is reported as “robust response; also recorded: strong gene expression changes”, the “gene set enrichment analysis of average transcriptional response, down-regulated” value ([1]; among TP53 WT cell lines) is reported as “down-regulation of cell cycle processes” and the “gene set enrichment analysis of average transcriptional response, up-regulated” value ([1]; among TP53 WT cell lines) is reported as “clear up-regulation of genes in the TP53 downstream pathway”. The “average drug-induced changes in gene expression for each cell line” value ([1]; cell lines harboring TP53 mutations (n=17) in a pool of 24 cell lines) was “only minimal changes; also recorded: weak gene expression changes” and the “change in proportion of cells in G0/G1” value ([2]; pool of 24 cell lines, TP53 WT vs TP53 mutant) was “pronounced G0/G1-arrest phenotype selectively among the TP53 WT cell lines; also recorded: elicits G1-arrest selectively among the TP53 WT cell lines”.

For `Cc1sc2c(c1C)C(c1ccc(Cl)cc1)=N[C@@H](CC(=O)OC(C)(C)C)c1nnc(C)n1-2` [JQ-1], the “shared viability-related signature” value [1] was “shared signature was also apparent”.

In the case of `Nc1ccn([C@@H]2O[C@H](CO)[C@@H](O)C2(F)F)c(=O)n1` [gemcitabine], the “gene sets enriched” value [1, 5] is reported as “altered expression of apoptosis-related genes”, the “shared viability-related signature” value [1] is reported as “shared signature was also apparent” and the “change in proportion of cells in G2/M phase” value [2] is reported as “decreased the proportion of cells in G2/M”. The “change in proportion of cells in S phase” value [2] was “increase in S-phase cells”.

In the case of `CC1(C)CCC(c2ccc(Cl)cc2)=C(CN2CCN(c3ccc(C(=O)NS(=O)(=O)c4ccc(N[C@H](CCN5CCOCC5)CSc5ccccc5)c(S(=O)(=O)C(F)(F)F)c4)cc3)CC2)C1` [navitoclax], the “robust transcriptional response signature” value ([1]; 6 and/or 24 hours post-treatment) is given as “did not produce strong and/or selective transcriptional responses; also recorded: did not produce robust transcriptional response signatures; also recorded: a robust transcriptional response to navitoclax was not observed” and the “long-term viability response across cell lines” value [4] is given as “strong selective viability responses”.

For `CO[C@H]1C[C@@H]2CC[C@@H](C)[C@@](O)(O2)C(=O)C(=O)N2CCCC[C@H]2C(=O)O[C@H]([C@H](C)C[C@@H]2CC[C@@H](OCCO)[C@H](OC)C2)CC(=O)[C@H](C)/C=C(\C)[C@@H](O)[C@@H](OC)C(=O)[C@H](C)C[C@H](C)/C=C/C=C/C=C/1C` [everolimus], the “gene sets enriched” value [1, 5] was “mTOR signaling was the top down-regulated gene set”.
